ChEMBL document CHEMBL1201862, “PubChem BioAssay data set” (2004)
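Five concentrations, 48 hours, 96-well plates. At the GI50, growth is halved.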 Activity calls are given as the source filed them. Rule as the data show it: active = GI50 up to about 1.1 µM and inactive = higher.

Tests used:
Assay in all cases: NCI tumour cell line growth inhibition, 48 h
ACHN = tested on: ACHN
CAKI-1 = tested on: CAKI-1
EKVX = tested on: EKVX
HCT-116 = tested on: HCT-116
HOP-62 = tested on: HOP-62
HT-29 = tested on: HT-29
LOX IMVI = tested on: LOX IMVI
M14 = tested on: M14
Malme-3M = tested on: Malme-3M
OVCAR-3 = tested on: OVCAR-3
OVCAR-4 = tested on: OVCAR-4
OVCAR-5 = tested on: OVCAR-5
SK-MEL-5 = tested on: SK-MEL-5
SK-OV-3 = tested on: SK-OV-3
SNB-75 = tested on: SNB-75
SW-620 = tested on: SW-620
TK-10 = tested on: TK-10
UACC-257 = tested on: UACC-257
UACC-62 = tested on: UACC-62

COc1cc(Br)c(CC2=NCCc3cc(OC)c(OC)cc32)cc1OC
GI50 (ACHN): 14.8 µM (inactive)
GI50 (CAKI-1): 15.9 µM (inactive)
GI50 (EKVX): 35.7 µM (inactive)
GI50 (HCT-116): 3.16 µM (inactive)
GI50 (HOP-62): > 100 µM (inactive)
GI50 (HT-29): 2.16 µM (inactive)
GI50 (LOX IMVI): 9.93 µM (inactive)
GI50 (M14): 12.9 µM (inactive)
GI50 (Malme-3M): 25.9 µM (inactive)
GI50 (OVCAR-3): 42.9 µM (inactive)
GI50 (OVCAR-4): 28.9 µM (inactive)
GI50 (OVCAR-5): 3.88 µM (inactive)
GI50 (SK-MEL-5): 16.7 µM (inactive)
GI50 (SK-OV-3): 24.6 µM (inactive)
GI50 (SNB-75): 36.3 µM (inactive)
GI50 (SW-620): 18 µM (inactive)
GI50 (TK-10): 5.65 µM (inactive)
GI50 (UACC-257): 16.6 µM (inactive)
GI50 (UACC-62): 7.13 µM (inactive)

COS(=O)(=O)OCCC(NC(=O)OCc1ccccc1)C(=O)OCc1ccccc1 (stereo not given)
GI50 (ACHN): > 100 µM (inactive)
GI50 (CAKI-1): > 100 µM (inactive)
GI50 (EKVX): > 100 µM (inactive)
GI50 (HCT-116): > 100 µM (inactive)
GI50 (HOP-62): > 100 µM (inactive)
GI50 (HT-29): 59.2 µM (inactive)
GI50 (LOX IMVI): > 100 µM (inactive)
GI50 (M14): > 100 µM (inactive)
GI50 (Malme-3M): > 100 µM (inactive)
GI50 (OVCAR-3): > 100 µM (inactive)
GI50 (OVCAR-4): > 100 µM (inactive)
GI50 (OVCAR-5): > 100 µM (inactive)
GI50 (SK-MEL-5): > 100 µM (inactive)
GI50 (SK-OV-3): > 100 µM (inactive)
GI50 (SNB-75): 71.6 µM (inactive)
GI50 (SW-620): > 100 µM (inactive)
GI50 (TK-10): > 100 µM (inactive)
GI50 (UACC-257): > 100 µM (inactive)
GI50 (UACC-62): > 100 µM (inactive)

O=C(Nc1nc2ccccc2n1Cc1ccc(Cl)cc1)NC12CC3CC(CC(C3)C1)C2
GI50 (ACHN): 35.7 µM (inactive)
GI50 (CAKI-1): 34.7 µM (inactive)
GI50 (EKVX): 32.7 µM (inactive)
GI50 (HCT-116): 19.4 µM (inactive)
GI50 (HOP-62): 17.1 µM (inactive)
GI50 (HT-29): 74.3 µM (inactive)
GI50 (LOX IMVI): 34.1 µM (inactive)
GI50 (M14): 25 µM (inactive)
GI50 (Malme-3M): 19.1 µM (inactive)
GI50 (OVCAR-3): 22.6 µM (inactive)
GI50 (OVCAR-4): 8.99 µM (inactive)
GI50 (OVCAR-5): 91.2 µM (inactive)
GI50 (SK-MEL-5): 33.3 µM (inactive)
GI50 (SK-OV-3): 16.2 µM (inactive)
GI50 (SNB-75): 7.74 µM (inactive)
GI50 (SW-620): 65.8 µM (inactive)
GI50 (TK-10): 32.5 µM (inactive)
GI50 (UACC-257): 28.2 µM (inactive)
GI50 (UACC-62): 17.3 µM (inactive)

Cc1ccccc1S(=O)(=O)Nn1cnc2ccc(S(=O)(=O)Nc3ccc(Cl)cc3)cc2c1=O
GI50 (ACHN): > 100 µM (inactive)
GI50 (CAKI-1): > 100 µM (inactive)
GI50 (EKVX): 35.2 µM (inactive)
GI50 (HCT-116): > 100 µM (inactive)
GI50 (HOP-62): > 100 µM (inactive)
GI50 (HT-29): > 100 µM (inactive)
GI50 (LOX IMVI): > 100 µM (inactive)
GI50 (M14): 65.9 µM (inactive)
GI50 (Malme-3M): > 100 µM (inactive)
GI50 (OVCAR-3): 85.5 µM (inactive)
GI50 (OVCAR-4): > 100 µM (inactive)
GI50 (OVCAR-5): > 100 µM (inactive)
GI50 (SK-OV-3): > 100 µM (inactive)
GI50 (SNB-75): > 100 µM (inactive)
GI50 (SW-620): > 100 µM (inactive)
GI50 (TK-10): > 100 µM (inactive)
GI50 (UACC-257): > 100 µM (inactive)
GI50 (UACC-62): 27.5 µM (inactive)

CC(C)CCC[C@@H](C)C1CCC2[C@@H]3CC=C4C[C@@H](C(=O)NCCN(C)C)CC[C@]4(C)C3CC[C@@]21C (stereo not given in full)
GI50 (ACHN): 35.8 µM (inactive)
GI50 (CAKI-1): 22.3 µM (inactive)
GI50 (EKVX): 47.5 µM (inactive)
GI50 (HOP-62): 18.9 µM (inactive)
GI50 (HT-29): 34.2 µM (inactive)
GI50 (LOX IMVI): 51.4 µM (inactive)
GI50 (M14): 16.3 µM (inactive)
GI50 (Malme-3M): 28.9 µM (inactive)
GI50 (OVCAR-3): 31.4 µM (inactive)
GI50 (OVCAR-4): 30.4 µM (inactive)
GI50 (OVCAR-5): > 100 µM (inactive)
GI50 (SK-MEL-5): > 10 µM (inactive)
GI50 (SK-OV-3): > 100 µM (inactive)
GI50 (SNB-75): 20.4 µM (inactive)
GI50 (SW-620): 30 µM (inactive)
GI50 (TK-10): 23.7 µM (inactive)
GI50 (UACC-257): 22.4 µM (inactive)
GI50 (UACC-62): 42.4 µM (inactive)

CCCC(OCC)(OCC)OCC
GI50 (ACHN): > 100 µM (inactive)
GI50 (CAKI-1): > 100 µM (inactive)
GI50 (EKVX): > 100 µM (inactive)
GI50 (HCT-116): 27.5 µM (inactive)
GI50 (HOP-62): > 100 µM (inactive)
GI50 (HT-29): > 100 µM (inactive)
GI50 (LOX IMVI): 48.8 µM (inactive)
GI50 (M14): > 100 µM (inactive)
GI50 (Malme-3M): > 100 µM (inactive)
GI50 (OVCAR-3): > 100 µM (inactive)
GI50 (OVCAR-4): > 100 µM (inactive)
GI50 (OVCAR-5): > 100 µM (inactive)
GI50 (SK-MEL-5): > 100 µM (inactive)
GI50 (SK-OV-3): > 100 µM (inactive)
GI50 (SNB-75): > 100 µM (inactive)
GI50 (TK-10): > 100 µM (inactive)
GI50 (UACC-257): > 100 µM (inactive)
GI50 (UACC-62): > 100 µM (inactive)

C=CCNC1=C2C[C@@H](C)C[C@@H](OC)[C@H](OC(=O)CN)[C@H](C)/C=C(\C)[C@@H](OC(N)=O)[C@H](OC)/C=C\C=C(/C)C(=O)NC(=CC1=O)C2=O
GI50 (ACHN): 5.13 µM (inactive)
GI50 (CAKI-1): 4.6 µM (inactive)
GI50 (EKVX): 5.77 µM (inactive)
GI50 (HCT-116): 0.575 µM (active)
GI50 (HOP-62): 0.521 µM (active)
GI50 (HT-29): 0.0406 µM (active)
GI50 (LOX IMVI): 0.528 µM (active)
GI50 (M14): 0.371 µM (active)
GI50 (Malme-3M): 0.456 µM (active)
GI50 (OVCAR-3): 1.16 µM (inactive)
GI50 (OVCAR-4): 4.35 µM (inactive)
GI50 (OVCAR-5): 6.25 µM (inactive)
GI50 (SK-MEL-5): 0.476 µM (active)
GI50 (SK-OV-3): 0.162 µM (active)
GI50 (SNB-75): 1.7 µM (inactive)
GI50 (SW-620): 0.183 µM (active)
GI50 (TK-10): 0.355 µM (active)
GI50 (UACC-257): 0.528 µM (active)
GI50 (UACC-62): 0.381 µM (active)
